Laboratory results: patent US20110130425A1, “Use of H3 Histaminergic Agonists for the Treatment of Addiction to Drugs of Abuse” (priority 2009, published 2011)

System: dopamine release
Experiment: Nicotine stimulation of dopamine release in striatal miniprisms
Type: cell-based, Sprague-Dawley rat
Conditions: 0.5 mM L-histidine preincubation; 100 nM nicotine, 15 mM K+; rat striatal miniprisms; vs controls
Description: One male Sprague-Dawley rat obtained from Charles-River weighing 200-250 g is used. The rat brain is rapidly removed and placed in ice-cold oxygen-saturated (O2/CO2:95%/5%) Krebs bicarbonate buffer (124 mM NaCl, 0.8 mM KCl, 1.25 mM NaH2PO4, 1.2 mM KH2PO4, 0.67 mM MgSO4, 2.6 mM CaCl2, 10 mM glucose and 27.5 mM NaHCO3, pH 7.4). The striata is dissected and cut using a Mcllwain™ Mechanical Tissue Copper (Stoelting Co., Wood Dale, Ill.) into miniprisms of 0.3 mm/side. The microprims are transferred to ice-cold Krebs buffer, gently centrifuged, and the buffer changed to remove damaged tissue and cellular debris.
Brain miniprisms are distributed into 24 flat-bottom Eppendorf tubes and preincubated for 2 hours in 0.25 mL Krebs buffer at 37° C. using an Eppendorf Thermomixer® under a O2/CO2 atmosphere. Then the medium is replaced with fresh Krebs buffer at 37° C. with or without 0.5 mM L-histidine prepared in the same buffer. This concentration of L-histidine is similar to that reached in plasma of L-histidine-treated humans (Block et al., 1967). […]
All samples are then cooled down on ice and quickly centrifuged at 1000×g for 1 minute to separate buffer from tissue. […] An automatic autosampler Merck-Hitachi L-7200 and an automated fraction collector Gilson FC203B automatically recover internal standard dopamine peaks when UV detected into scintillation vials. […]

SMILES: N[C@@H](Cc1c[nH]cn1)C(=O)O [L-histidine]
- dopamine release caused by nicotine stimulation: less dopamine release
